Data: ChEMBL document CHEMBL4507297, “Data for DCP probe PF-04457845” (2021)

What was measured:
[1] = test system: Tyrosine-protein kinase ABL1 (Homo sapiens), P00519 [F317L]; conditions: Compound concentration 1000.0 nM
[2] = test system: Tyrosine-protein kinase ABL1 (Homo sapiens), P00519 [H396P]; conditions: Compound concentration 1000.0 nM
[3] = molecular target: RAC-alpha serine/threonine-protein kinase (Homo sapiens) (UniProt P31749); conditions: Compound concentration 1000.0 nM
[4] = molecular target: RAC-gamma serine/threonine-protein kinase (Homo sapiens) (UniProt Q9Y243); conditions: Compound concentration 1000.0 nM
[5] = test system: Serine/threonine-protein kinase B-raf (Homo sapiens), P15056 [V600E]; conditions: Compound concentration 1000.0 nM
[6] = molecular target: Calcium/calmodulin-dependent protein kinase type 1 (Homo sapiens) (UniProt Q14012); conditions: Compound concentration 1000.0 nM
[7] = molecular target: Calcium/calmodulin-dependent protein kinase type 1G (Homo sapiens) (UniProt Q96NX5); conditions: Compound concentration 1000.0 nM
[8] = molecular target: Cyclin-dependent kinase 11A (Homo sapiens) (UniProt Q9UQ88); conditions: Compound concentration 1000.0 nM
[9] = molecular target: Cyclin-dependent kinase 13 (Homo sapiens) (UniProt Q14004); conditions: Compound concentration 1000.0 nM
[10] = molecular target: Casein kinase I isoform delta (Homo sapiens) (UniProt P48730); conditions: Compound concentration 1000.0 nM
[11] = molecular target: Casein kinase I isoform gamma-3 (Homo sapiens) (UniProt Q9Y6M4); conditions: Compound concentration 1000.0 nM
[12] = molecular target: Megakaryocyte-associated tyrosine-protein kinase (Homo sapiens) (UniProt P42679); conditions: Compound concentration 1000.0 nM
[13] = molecular target: Serine/threonine-protein kinase MRCK gamma (Homo sapiens) (UniProt Q6DT37); conditions: Compound concentration 1000.0 nM
[14] = test system: Epidermal growth factor receptor (Homo sapiens), P00533 [G719S]; conditions: Compound concentration 1000.0 nM
[15] = test system: Epidermal growth factor receptor (Homo sapiens), P00533 [UNDEFINED MUTATION]; conditions: Compound concentration 1000.0 nM
[16] = molecular target: Ephrin type-A receptor 3 (Homo sapiens) (UniProt P29320); conditions: Compound concentration 1000.0 nM
[17] = molecular target: Mitogen-activated protein kinase 1 (Homo sapiens) (UniProt P28482); conditions: Compound concentration 1000.0 nM
[18] = molecular target: Serine/threonine-protein kinase/endoribonuclease IRE1 (Homo sapiens) (UniProt O75460); conditions: Compound concentration 1000.0 nM
[19] = molecular target: Fibroblast growth factor receptor 2 (Homo sapiens) (UniProt P21802); conditions: Compound concentration 1000.0 nM
[20] = test system: Receptor-type tyrosine-protein kinase FLT3 (Homo sapiens), P36888 [D835V]; conditions: Compound concentration 1000.0 nM
[21] = molecular target: Serine/threonine-protein kinase haspin (Homo sapiens) (UniProt Q8TF76); conditions: Compound concentration 1000.0 nM
[22] = molecular target: Homeodomain-interacting protein kinase 2 (Homo sapiens) (UniProt Q9H2X6); conditions: Compound concentration 1000.0 nM
[23] = molecular target: Tyrosine-protein kinase JAK1 (Homo sapiens) (UniProt P23458); conditions: Compound concentration 1000.0 nM
[24] = molecular target: Mast/stem cell growth factor receptor Kit (Homo sapiens) (UniProt P10721); conditions: Compound concentration 1000.0 nM
[25] = molecular target: Serine/threonine-protein kinase LATS1 (Homo sapiens) (UniProt O95835); conditions: Compound concentration 1000.0 nM
[26] = molecular target: Mitogen-activated protein kinase kinase kinase 2 (Homo sapiens) (UniProt Q9Y2U5); conditions: Compound concentration 1000.0 nM
[27] = molecular target: Mitogen-activated protein kinase kinase kinase 4 (Homo sapiens) (UniProt Q9Y6R4); conditions: Compound concentration 1000.0 nM
[28] = molecular target: Dual specificity mitogen-activated protein kinase kinase 5 (Homo sapiens) (UniProt Q13163); conditions: Compound concentration 1000.0 nM
[29] = molecular target: Myosin light chain kinase (Homo sapiens) (UniProt Q32MK0); conditions: Compound concentration 1000.0 nM
[30] = molecular target: Mitogen-activated protein kinase kinase kinase 10 (Homo sapiens) (UniProt Q02779); conditions: Compound concentration 1000.0 nM
[31] = molecular target: Myosin light chain kinase family member 4 (Homo sapiens) (UniProt Q86YV6); conditions: Compound concentration 1000.0 nM
[32] = molecular target: Myosin-IIIa (Homo sapiens) (UniProt Q8NEV4); conditions: Compound concentration 1000.0 nM
[33] = molecular target: Myosin-IIIb (Homo sapiens) (UniProt Q8WXR4); conditions: Compound concentration 1000.0 nM
[34] = molecular target: Serine/threonine-protein kinase 38 (Homo sapiens) (UniProt Q15208); conditions: Compound concentration 1000.0 nM
[35] = molecular target: Serine/threonine-protein kinase PLK1 (Homo sapiens) (UniProt P53350); conditions: Compound concentration 1000.0 nM
[36] = molecular target: Protein kinase C theta type (Homo sapiens) (UniProt Q04759); conditions: Compound concentration 1000.0 nM
[37] = molecular target: Ribosomal protein S6 kinase alpha-3 (Homo sapiens) (UniProt P51812); conditions: Compound concentration 1000.0 nM
[38] = molecular target: SRSF protein kinase 2 (Homo sapiens) (UniProt P78362); conditions: Compound concentration 1000.0 nM
[39] = molecular target: Mitogen-activated protein kinase kinase kinase 7 (Homo sapiens) (UniProt O43318); conditions: Compound concentration 1000.0 nM
[40] = molecular target: TGF-beta receptor type-2 (Homo sapiens) (UniProt P37173); conditions: Compound concentration 1000.0 nM
[41] = molecular target: Serine/threonine-protein kinase TNNI3K (Homo sapiens) (UniProt Q59H18); conditions: Compound concentration 1000.0 nM
[42] = molecular target: Non-receptor tyrosine-protein kinase TYK2 (Homo sapiens) (UniProt P29597); conditions: Compound concentration 1000.0 nM
[43] = molecular target: Serine/threonine-protein kinase WNK1 (Homo sapiens) (UniProt Q9H4A3); conditions: Compound concentration 1000.0 nM
[44] = molecular target: Mitogen-activated protein kinase kinase kinase 19 (Homo sapiens) (UniProt Q56UN5); conditions: Compound concentration 1000.0 nM
[45] = molecular target: Histamine H3 receptor (Homo sapiens) (UniProt Q9Y5N1); conditions: Compound concentration 10.0 uM
Chain of Histamine H3 receptor (Homo sapiens) (Q9Y5N1 whole entry): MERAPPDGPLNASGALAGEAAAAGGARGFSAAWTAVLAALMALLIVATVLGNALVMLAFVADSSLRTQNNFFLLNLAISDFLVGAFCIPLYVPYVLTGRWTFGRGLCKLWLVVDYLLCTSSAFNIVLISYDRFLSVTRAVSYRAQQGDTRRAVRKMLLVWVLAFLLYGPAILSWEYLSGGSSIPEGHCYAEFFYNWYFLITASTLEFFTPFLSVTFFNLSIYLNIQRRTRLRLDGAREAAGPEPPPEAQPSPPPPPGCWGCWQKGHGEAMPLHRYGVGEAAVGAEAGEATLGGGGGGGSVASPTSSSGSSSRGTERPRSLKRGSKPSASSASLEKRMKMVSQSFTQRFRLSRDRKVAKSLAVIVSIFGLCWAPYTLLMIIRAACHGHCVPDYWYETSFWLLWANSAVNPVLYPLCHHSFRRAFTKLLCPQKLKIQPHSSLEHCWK

Chain of Ephrin type-A receptor 3 (Homo sapiens) (P29320 whole entry): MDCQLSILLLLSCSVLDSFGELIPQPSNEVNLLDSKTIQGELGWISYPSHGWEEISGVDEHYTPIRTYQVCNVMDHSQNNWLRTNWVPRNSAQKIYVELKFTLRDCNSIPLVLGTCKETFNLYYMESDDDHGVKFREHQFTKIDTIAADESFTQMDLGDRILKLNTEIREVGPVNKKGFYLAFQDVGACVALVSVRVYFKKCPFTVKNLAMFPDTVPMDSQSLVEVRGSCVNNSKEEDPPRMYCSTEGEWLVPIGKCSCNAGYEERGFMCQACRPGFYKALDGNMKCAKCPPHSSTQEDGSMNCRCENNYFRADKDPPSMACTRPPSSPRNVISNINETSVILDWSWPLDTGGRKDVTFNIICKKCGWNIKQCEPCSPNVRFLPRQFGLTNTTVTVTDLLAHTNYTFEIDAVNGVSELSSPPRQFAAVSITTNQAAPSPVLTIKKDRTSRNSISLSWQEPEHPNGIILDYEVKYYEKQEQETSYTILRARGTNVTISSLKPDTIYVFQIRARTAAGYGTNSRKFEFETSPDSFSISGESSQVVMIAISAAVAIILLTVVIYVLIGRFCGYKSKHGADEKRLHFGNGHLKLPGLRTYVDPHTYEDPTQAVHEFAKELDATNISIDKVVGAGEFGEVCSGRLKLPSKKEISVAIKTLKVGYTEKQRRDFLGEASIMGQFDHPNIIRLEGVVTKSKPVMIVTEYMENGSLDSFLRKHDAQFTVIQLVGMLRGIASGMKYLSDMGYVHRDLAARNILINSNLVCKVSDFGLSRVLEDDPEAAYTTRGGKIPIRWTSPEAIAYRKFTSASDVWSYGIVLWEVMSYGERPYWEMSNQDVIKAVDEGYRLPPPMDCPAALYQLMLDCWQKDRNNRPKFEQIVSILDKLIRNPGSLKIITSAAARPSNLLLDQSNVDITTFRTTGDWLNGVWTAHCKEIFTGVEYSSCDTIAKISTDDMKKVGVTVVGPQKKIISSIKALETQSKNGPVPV
Chain of Mitogen-activated protein kinase kinase kinase 4 (Homo sapiens) (Q9Y6R4 whole entry): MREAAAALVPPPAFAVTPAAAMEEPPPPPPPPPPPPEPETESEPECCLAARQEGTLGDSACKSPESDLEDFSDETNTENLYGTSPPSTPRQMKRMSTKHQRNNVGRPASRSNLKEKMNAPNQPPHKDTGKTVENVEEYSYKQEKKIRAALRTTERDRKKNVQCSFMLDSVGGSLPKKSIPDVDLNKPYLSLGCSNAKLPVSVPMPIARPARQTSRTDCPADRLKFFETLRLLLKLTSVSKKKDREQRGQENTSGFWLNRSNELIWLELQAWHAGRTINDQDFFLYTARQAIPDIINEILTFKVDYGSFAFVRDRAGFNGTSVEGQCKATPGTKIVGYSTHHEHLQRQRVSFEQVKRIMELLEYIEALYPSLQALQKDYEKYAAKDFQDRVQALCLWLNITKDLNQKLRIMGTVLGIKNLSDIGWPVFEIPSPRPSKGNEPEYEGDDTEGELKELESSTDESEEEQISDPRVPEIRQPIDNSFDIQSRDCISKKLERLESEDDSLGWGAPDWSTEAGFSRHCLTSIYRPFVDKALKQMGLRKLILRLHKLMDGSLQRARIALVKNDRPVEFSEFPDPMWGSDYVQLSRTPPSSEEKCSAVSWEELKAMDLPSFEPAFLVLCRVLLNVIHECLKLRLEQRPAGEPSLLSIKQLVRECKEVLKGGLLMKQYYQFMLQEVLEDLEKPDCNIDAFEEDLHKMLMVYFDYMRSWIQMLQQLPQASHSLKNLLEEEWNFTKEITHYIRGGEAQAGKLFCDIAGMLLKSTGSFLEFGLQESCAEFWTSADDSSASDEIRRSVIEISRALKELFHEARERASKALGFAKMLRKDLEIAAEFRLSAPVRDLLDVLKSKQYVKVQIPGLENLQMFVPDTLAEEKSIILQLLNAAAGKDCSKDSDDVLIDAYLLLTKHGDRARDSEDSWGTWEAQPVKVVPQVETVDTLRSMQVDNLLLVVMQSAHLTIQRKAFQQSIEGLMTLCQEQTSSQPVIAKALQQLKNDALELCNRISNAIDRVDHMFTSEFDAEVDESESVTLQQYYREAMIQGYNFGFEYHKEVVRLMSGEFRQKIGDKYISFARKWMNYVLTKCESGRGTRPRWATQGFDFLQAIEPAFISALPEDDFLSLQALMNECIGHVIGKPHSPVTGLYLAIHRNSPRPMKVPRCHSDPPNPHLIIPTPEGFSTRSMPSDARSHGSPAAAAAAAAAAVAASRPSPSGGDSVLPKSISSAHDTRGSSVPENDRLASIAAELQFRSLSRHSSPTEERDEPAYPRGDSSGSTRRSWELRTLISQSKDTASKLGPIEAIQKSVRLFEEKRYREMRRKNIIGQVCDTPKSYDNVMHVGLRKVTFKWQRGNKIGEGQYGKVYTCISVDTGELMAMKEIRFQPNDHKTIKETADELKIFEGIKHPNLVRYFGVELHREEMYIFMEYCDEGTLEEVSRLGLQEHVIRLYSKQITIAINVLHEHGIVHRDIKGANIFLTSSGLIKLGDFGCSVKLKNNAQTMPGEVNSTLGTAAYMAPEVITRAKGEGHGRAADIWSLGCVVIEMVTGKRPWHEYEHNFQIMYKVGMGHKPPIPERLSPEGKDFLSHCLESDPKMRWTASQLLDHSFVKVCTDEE
Chain of Myosin light chain kinase family member 4 (Homo sapiens) (Q86YV6 whole entry): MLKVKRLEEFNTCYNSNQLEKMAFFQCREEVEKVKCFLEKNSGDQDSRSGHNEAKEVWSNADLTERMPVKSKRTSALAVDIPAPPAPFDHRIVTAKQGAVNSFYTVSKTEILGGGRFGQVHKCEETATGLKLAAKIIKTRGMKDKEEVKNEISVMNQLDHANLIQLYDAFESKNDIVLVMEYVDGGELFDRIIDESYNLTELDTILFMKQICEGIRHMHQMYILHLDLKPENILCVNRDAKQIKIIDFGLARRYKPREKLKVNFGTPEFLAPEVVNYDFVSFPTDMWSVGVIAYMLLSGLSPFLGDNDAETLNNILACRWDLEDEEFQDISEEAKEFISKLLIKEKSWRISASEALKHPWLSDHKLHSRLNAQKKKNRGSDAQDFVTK
Chain of Serine/threonine-protein kinase LATS1 (Homo sapiens) (O95835 whole entry): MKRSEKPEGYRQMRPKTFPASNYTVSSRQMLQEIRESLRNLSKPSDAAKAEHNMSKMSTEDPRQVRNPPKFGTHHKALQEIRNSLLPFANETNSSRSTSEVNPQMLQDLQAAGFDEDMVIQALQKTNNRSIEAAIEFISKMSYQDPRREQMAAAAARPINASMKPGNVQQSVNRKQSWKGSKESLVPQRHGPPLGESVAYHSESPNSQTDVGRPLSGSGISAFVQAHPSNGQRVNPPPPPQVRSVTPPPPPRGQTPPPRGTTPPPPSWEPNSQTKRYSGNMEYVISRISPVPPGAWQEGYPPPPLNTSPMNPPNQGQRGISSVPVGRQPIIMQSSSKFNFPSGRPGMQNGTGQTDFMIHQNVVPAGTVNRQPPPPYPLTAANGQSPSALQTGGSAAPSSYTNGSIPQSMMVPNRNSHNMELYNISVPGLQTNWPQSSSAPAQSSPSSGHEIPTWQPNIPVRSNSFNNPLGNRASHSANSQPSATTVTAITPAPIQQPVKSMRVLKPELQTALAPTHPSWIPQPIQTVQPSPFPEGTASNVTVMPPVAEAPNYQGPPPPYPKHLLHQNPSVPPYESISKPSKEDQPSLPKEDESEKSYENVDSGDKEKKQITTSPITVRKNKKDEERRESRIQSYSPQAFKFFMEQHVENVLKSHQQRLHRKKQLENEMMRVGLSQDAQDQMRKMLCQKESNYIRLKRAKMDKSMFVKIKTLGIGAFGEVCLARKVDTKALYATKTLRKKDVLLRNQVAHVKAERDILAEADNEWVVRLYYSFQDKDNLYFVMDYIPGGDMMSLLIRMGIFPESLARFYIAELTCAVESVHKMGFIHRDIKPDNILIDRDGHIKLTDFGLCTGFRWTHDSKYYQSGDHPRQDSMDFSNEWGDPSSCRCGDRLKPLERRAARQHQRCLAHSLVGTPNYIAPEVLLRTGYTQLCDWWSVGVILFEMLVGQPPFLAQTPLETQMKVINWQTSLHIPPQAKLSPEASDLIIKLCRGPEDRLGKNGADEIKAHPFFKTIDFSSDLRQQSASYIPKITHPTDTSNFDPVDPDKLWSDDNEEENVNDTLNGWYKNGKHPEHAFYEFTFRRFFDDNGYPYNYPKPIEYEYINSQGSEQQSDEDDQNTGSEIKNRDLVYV
Chain of Casein kinase I isoform gamma-3 (Homo sapiens) (Q9Y6M4 whole entry, looked up, canonical isoform): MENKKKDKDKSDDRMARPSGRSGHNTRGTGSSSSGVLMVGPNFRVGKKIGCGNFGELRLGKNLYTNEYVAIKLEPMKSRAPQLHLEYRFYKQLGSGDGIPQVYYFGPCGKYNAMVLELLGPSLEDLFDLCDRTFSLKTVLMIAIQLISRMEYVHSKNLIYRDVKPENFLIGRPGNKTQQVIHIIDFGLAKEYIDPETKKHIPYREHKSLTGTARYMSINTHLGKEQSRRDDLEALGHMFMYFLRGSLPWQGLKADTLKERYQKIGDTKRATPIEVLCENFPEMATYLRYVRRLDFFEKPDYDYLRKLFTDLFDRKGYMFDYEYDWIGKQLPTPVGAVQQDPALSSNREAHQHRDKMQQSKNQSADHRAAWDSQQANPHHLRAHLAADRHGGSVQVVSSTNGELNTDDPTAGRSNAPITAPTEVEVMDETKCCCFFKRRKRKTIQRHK

O=C(Nc1cccnn1)N1CC(C/C=C/c2cncc(Oc3ccc(C(F)(F)F)cn3)n2)C1
inactive: residual activity [1] 58% | residual activity [2] 76% | residual activity [3] 100% | residual activity [4] 100% | residual activity [5] 85% | residual activity [6] 100% | residual activity [7] 100% | residual activity [8] 100% | residual activity [9] 98% | residual activity [10] 100% | residual activity [11] 100% | residual activity [12] 59% | residual activity [13] 100% | residual activity [14] 100% | residual activity [15] 100% | residual activity [16] 95% | residual activity [17] 100% | residual activity [18] 67% | residual activity [19] 100% | residual activity [20] 77% | residual activity [21] 79% | residual activity [22] 89% | residual activity [23] 100% | residual activity [24] 80% | residual activity [25] 91% | residual activity [26] 79% | residual activity [27] 100% | residual activity [28] 88% | residual activity [29] 85% | residual activity [30] 100% | residual activity [31] 100% | residual activity [32] 100% | residual activity [33] 100% | residual activity [34] 99% | residual activity [35] 87% | residual activity [36] 100% | residual activity [37] 89% | residual activity [38] 100% | residual activity [39] 93% | residual activity [40] 100% | residual activity [41] 100% | residual activity [42] 79% | residual activity [43] 100% | residual activity [44] 90% | inhibition [45] 17.3%

O=C(Nc1cccnn1)N1CCC(=Cc2cccc(Oc3ccc(C(F)(F)F)cn3)c2)CC1
inactive: residual activity [1] 100% | residual activity [2] 100% | residual activity [3] 93% | residual activity [4] 100% | residual activity [5] 100% | residual activity [6] 100% | residual activity [7] 95% | residual activity [8] 82% | residual activity [9] 100% | residual activity [10] 100% | residual activity [11] 100% | residual activity [12] 100% | residual activity [13] 84% | residual activity [14] 99% | residual activity [15] 83% | residual activity [16] 100% | residual activity [17] 92% | residual activity [18] 92% | residual activity [19] 96% | residual activity [20] 100% | residual activity [21] 100% | residual activity [22] 100% | residual activity [23] 97% | residual activity [24] 81% | residual activity [25] 100% | residual activity [26] 100% | residual activity [27] 100% | residual activity [28] 100% | residual activity [29] 100% | residual activity [30] 100% | residual activity [31] 100% | residual activity [32] 100% | residual activity [33] 100% | residual activity [34] 100% | residual activity [35] 100% | residual activity [36] 67% | residual activity [37] 100% | residual activity [38] 100% | residual activity [39] 100% | residual activity [40] 76% | residual activity [41] 100% | residual activity [42] 100% | residual activity [43] 100% | residual activity [44] 85% | inhibition [45] 8.73%
